From PubChem BioAssay AID651986 (The Scripps Research Institute Molecular Screening Center, 2013)
Calls of active or inactive are those of the source. No rule for the calls is given here.

Assays:
Experiment in all cases: in situ LYPLA1 and LYPLA2 inhibition, late-stage follow-up, gel-based ABPP, fluorescence, HEK293T, murine T cells (AID 651986)
[1] = biological target: Acyl-protein thioesterase 2 (Homo sapiens) (UniProt O95372); conditions: HEK293T or murine T cells, NHU5 gel-based ABPP, LYPLA2 HEK293T cells, at 5 µM, stronger effect = higher value
[2] = biological target: Acyl-protein thioesterase 1 (Homo sapiens) (UniProt O75608); conditions: HEK293T or murine T cells, NHU5 gel-based ABPP, LYPLA1 HEK293T cells, at 5 µM, stronger effect = higher value
[3] = system: LYPLA1 murine T cells; conditions: HEK293T or murine T cells, NHU5 gel-based ABPP, at 5 µM, stronger effect = higher value
[4] = system: LYPLA2 murine T cells; conditions: HEK293T or murine T cells, NHU5 gel-based ABPP, at 5 µM, stronger effect = higher value

Sequence of Acyl-protein thioesterase 2 (Homo sapiens) (O95372 whole entry, looked up): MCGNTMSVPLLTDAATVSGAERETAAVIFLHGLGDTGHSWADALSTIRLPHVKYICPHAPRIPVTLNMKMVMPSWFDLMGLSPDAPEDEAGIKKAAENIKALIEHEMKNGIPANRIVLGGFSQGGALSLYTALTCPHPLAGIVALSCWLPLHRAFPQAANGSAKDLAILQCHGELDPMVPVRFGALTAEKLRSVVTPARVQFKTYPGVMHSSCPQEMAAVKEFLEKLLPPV
Sequence of Acyl-protein thioesterase 1 (Homo sapiens) (O75608 whole entry, looked up): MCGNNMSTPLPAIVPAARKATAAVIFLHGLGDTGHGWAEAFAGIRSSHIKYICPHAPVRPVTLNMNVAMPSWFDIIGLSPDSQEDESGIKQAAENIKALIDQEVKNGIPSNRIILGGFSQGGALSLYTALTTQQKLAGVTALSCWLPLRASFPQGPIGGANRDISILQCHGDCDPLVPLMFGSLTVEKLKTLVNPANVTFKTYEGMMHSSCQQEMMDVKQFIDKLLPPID

Row | inhibition [1] | inhibition [2] | inhibition [3] | inhibition [4] | Structure (SMILES)
1 | 0% (inactive) | 100% | 100% | 0% (inactive) | O=C(CN1CCN(C(=O)c2ccco2)CC1)Nc1cc(C(F)(F)F)ccc1Cl
2 | 100% | 0% (inactive) | 0% (inactive) | 100% | COc1ccc(N2CCN(C(=O)c3cc4c(s3)-c3ccccc3S(=O)(=O)C4)CC2)cc1
